Common to all, as to assay: biochemical
Set-up in all cases: endogenous in cells; host or cells: K562 cell extract; species or system K562 (extract); replicate k of n = 2 (each experiment ID is one independent experiment; two experiment IDs per compound)
Common to all, as to details: read-out: KDapp

Assay [1] deals with PTK2 (Homo sapiens, UniProt Q05397).
The target of assay [2] is TYK2 (Homo sapiens, UniProt P29597).
In assay [3] the target is BRAF (Homo sapiens, UniProt P15056).
In assay [4] the target is T1, MAP3K2 (Homo sapiens, UniProt Q9Y2U5).
T1 sequence (Q9Y2U5 1-619): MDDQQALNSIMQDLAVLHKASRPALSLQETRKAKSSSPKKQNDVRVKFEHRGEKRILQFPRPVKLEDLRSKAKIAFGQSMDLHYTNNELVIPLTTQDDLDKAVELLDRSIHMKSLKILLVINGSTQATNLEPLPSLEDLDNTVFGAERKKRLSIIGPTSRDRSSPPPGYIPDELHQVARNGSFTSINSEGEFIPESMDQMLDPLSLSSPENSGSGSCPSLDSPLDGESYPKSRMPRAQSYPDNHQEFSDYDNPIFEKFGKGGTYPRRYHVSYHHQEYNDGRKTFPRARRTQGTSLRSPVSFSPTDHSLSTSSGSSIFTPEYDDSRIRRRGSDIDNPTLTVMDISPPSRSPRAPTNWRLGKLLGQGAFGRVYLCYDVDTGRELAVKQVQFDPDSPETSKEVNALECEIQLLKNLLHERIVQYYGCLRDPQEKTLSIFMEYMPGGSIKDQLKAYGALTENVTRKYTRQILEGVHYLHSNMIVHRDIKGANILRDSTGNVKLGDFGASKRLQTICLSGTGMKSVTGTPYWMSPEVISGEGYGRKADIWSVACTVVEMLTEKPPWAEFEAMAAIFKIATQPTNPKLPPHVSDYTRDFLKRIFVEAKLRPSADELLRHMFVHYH

In assay [5] the target is LYN (Homo sapiens, UniProt P07948).
Sequence of LYN (P07948 whole entry): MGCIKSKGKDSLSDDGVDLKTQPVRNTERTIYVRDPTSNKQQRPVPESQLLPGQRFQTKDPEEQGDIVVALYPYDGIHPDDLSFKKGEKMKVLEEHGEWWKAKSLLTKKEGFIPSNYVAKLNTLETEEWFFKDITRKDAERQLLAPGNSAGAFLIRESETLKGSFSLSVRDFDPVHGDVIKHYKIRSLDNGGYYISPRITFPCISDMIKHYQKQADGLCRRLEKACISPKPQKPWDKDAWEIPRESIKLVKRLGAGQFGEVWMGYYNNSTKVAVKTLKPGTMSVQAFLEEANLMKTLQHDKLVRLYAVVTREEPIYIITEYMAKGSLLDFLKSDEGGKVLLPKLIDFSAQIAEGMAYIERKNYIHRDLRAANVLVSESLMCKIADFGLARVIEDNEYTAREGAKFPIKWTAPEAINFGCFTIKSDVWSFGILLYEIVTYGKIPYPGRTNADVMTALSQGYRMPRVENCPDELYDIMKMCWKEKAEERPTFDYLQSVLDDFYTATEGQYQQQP
Assay [6] deals with T2, GAK (Homo sapiens, UniProt O14976).
T2 sequence (O14976 1-1311): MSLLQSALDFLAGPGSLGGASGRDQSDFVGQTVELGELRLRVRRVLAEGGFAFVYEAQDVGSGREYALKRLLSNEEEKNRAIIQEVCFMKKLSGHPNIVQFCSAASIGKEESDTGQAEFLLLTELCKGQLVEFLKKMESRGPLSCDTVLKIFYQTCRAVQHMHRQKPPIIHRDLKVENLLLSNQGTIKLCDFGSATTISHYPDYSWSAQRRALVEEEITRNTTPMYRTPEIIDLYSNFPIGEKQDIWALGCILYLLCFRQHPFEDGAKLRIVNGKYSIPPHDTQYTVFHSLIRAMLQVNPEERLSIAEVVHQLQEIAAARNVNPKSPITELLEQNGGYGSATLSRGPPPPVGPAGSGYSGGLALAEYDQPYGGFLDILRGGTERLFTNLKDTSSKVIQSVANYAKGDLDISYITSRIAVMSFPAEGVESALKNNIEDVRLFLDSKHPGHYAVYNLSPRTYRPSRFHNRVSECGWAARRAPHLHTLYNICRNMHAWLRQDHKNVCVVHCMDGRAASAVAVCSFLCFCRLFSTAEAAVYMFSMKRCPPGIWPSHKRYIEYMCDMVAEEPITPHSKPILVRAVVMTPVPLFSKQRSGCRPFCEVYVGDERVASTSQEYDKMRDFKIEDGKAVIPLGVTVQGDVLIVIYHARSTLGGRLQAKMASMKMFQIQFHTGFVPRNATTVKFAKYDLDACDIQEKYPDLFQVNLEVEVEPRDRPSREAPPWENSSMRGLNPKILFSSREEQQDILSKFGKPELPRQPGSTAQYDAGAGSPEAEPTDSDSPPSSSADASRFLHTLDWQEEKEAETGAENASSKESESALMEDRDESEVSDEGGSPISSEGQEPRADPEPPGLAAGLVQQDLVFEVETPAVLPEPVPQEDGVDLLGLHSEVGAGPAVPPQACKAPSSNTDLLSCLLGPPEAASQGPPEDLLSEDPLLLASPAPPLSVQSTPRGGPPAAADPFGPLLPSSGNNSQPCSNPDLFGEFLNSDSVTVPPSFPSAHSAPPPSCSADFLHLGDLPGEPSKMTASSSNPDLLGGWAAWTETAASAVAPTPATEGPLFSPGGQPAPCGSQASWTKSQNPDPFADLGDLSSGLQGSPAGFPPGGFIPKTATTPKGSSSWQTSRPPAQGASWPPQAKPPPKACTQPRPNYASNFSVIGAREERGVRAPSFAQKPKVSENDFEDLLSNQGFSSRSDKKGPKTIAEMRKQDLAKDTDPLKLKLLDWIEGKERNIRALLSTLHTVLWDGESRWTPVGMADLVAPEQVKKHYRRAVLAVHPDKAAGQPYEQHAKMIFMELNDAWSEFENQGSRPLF

Assay [7] addresses WEE1 (Homo sapiens, UniProt P30291).

Structures are written as SMILES. Several values for one entry are separate records, joined by “and”; a condition that tells them apart may be missing. Identical values can stand only once.

Sequence of BRAF (P15056 whole entry): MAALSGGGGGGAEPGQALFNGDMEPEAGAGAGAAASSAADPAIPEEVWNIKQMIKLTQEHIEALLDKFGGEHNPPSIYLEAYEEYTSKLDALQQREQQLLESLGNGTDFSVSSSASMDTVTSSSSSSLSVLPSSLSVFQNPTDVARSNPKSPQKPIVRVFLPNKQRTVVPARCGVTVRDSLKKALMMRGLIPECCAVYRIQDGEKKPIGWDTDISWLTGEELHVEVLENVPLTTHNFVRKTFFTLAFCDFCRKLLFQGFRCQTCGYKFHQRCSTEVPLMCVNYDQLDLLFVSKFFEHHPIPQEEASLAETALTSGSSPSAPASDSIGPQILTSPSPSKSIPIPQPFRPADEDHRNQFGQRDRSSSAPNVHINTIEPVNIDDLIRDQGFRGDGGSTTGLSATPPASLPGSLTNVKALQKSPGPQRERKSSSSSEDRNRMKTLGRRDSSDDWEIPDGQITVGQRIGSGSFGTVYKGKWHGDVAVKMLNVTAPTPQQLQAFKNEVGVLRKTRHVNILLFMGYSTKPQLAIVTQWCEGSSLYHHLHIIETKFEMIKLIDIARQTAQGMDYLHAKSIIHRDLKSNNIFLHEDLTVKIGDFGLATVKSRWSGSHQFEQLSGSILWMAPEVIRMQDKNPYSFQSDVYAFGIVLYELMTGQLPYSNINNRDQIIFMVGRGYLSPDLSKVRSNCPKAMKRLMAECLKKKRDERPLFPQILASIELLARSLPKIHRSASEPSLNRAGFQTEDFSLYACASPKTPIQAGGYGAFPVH
Sequence of PTK2 (Q05397 whole entry): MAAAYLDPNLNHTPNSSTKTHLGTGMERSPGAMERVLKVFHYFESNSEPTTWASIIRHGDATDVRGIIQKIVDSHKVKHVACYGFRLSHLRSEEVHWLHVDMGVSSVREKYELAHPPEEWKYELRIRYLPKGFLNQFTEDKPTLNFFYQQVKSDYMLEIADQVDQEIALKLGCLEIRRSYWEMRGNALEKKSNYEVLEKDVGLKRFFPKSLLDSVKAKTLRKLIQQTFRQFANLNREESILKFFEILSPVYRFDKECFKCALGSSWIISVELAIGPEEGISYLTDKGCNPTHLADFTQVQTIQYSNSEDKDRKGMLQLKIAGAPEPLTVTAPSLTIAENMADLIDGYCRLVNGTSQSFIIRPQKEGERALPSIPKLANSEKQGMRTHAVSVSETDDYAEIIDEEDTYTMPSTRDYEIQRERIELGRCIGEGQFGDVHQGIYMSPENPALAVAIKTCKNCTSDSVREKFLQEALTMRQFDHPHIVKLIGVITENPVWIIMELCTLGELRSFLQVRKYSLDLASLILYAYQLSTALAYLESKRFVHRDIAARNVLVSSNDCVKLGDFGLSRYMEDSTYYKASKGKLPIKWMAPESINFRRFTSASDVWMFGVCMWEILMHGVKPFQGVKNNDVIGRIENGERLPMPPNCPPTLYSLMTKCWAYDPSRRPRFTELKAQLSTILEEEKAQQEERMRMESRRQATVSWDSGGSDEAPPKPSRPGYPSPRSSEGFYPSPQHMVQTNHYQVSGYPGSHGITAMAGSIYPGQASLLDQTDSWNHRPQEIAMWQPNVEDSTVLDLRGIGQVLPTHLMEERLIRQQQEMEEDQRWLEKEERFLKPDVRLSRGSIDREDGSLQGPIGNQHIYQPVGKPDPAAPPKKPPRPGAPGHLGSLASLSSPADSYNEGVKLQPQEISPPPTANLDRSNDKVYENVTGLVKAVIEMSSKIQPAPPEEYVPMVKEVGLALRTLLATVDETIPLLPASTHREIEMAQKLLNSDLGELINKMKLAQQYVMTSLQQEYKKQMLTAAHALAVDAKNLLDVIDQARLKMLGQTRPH
Sequence of TYK2 (P29597 whole entry): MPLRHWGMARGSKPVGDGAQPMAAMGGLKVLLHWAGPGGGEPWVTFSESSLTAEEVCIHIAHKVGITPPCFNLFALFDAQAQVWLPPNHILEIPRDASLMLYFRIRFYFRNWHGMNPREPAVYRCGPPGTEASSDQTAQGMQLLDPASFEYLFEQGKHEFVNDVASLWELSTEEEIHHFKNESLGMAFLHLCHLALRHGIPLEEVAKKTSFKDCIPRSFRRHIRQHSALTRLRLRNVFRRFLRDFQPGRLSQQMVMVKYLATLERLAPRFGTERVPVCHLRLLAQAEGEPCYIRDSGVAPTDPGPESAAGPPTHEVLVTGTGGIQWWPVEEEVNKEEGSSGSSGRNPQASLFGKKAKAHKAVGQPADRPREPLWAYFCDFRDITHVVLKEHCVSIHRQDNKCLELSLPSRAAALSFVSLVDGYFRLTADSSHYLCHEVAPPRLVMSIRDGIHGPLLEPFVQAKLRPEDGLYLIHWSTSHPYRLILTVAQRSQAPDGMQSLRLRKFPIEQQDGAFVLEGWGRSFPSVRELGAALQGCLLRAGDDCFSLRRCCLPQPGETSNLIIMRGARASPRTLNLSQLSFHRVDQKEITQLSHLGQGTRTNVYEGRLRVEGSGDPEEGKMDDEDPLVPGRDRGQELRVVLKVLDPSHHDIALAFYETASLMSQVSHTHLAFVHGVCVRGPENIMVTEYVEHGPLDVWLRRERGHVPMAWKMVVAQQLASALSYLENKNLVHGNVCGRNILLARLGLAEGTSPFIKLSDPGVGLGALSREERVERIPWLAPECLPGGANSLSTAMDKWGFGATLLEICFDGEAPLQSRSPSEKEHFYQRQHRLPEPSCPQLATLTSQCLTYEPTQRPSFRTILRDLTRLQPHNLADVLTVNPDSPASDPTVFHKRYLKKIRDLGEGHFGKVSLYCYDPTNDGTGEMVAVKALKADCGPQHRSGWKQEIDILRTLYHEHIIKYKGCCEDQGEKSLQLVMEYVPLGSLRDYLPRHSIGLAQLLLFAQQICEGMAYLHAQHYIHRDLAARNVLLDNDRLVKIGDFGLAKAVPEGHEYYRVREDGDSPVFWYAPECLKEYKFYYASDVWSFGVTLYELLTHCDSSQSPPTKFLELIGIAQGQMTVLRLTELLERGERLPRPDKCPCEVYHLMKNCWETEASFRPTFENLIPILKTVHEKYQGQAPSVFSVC
Sequence of WEE1 (P30291 whole entry): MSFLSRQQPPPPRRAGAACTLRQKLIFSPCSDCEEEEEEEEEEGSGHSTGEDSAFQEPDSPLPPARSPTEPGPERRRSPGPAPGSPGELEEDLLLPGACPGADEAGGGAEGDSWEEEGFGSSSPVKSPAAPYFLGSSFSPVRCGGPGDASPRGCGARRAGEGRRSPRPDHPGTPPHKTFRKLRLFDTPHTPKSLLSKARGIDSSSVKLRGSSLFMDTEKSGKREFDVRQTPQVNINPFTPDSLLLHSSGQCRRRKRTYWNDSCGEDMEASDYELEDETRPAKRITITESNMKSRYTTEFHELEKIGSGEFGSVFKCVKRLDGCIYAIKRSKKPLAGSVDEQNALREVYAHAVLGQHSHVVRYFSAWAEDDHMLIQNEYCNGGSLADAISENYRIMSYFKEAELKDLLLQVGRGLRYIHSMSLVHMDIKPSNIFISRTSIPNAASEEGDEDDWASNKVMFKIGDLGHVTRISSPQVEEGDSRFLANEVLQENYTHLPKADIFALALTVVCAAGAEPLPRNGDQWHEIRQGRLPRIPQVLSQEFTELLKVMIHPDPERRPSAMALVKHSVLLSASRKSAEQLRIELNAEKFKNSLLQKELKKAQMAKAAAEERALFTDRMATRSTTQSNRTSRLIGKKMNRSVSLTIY

Regarding `CN1CCN(c2ccc(Nc3ncc(C#N)c(Nc4ccccc4C(N)=O)n3)cc2)CC1.Cl` [TCMDC-134116], the Kd in assay [1] was 13.2 nM and 17.4 nM; in assay [2] it was 35.6 nM and 32.8 nM; in assay [3] it was 1570 nM; in assay [4], 318 nM; in assay [5] it was 134 nM and 167 nM; in assay [6] it was 32.3 nM and 39.4 nM. For the same compound, the Kd in assay [7] was 17.3 nM and 16.9 nM.

Take `Cl.NCC1(c2nc(-c3ccc(Cl)c(O)c3)c(-c3ccncc3)[nH]2)CCCCC1` [TCMDC-141154]: the Kd in assay [3] was 861 nM and 705 nM; in assay [4] it was 779 nM; in assay [5] it was 621 nM.

For `CN(C)CC(O)COc1ccc(Nc2ncc([N+](=O)[O-])c(Nc3ccccc3O)n2)cc1.O=C(O)C(F)(F)F` (centres unmarked) [TCMDC-141399], the Kd is 26.9 nM and 29 nM in assay [1]; 677 nM in assay [2]; 591 nM and 907 nM in assay [6]; 209 nM in assay [7].
